In patent US20230136600A1, “Method and device for screening antigen epitope polypeptide” (priority 2020, published 2023):

Test system: Balb/c mice
Assay: Polypeptide chip-based vaccine immunogenicity scoring system
Assay type: in vivo
Parameters: key to A2: whether the 95 percentile of the last sampling is increased compared with the end point: Y = rise; N = no rise
Details: Embodiment III, polypeptide-KLH; for A1: difference between a highest median and a D 0 median (95 percentile) / A2: whether the 95 percentile of the last sampling is increased compared with the end point: Mix1-10; for Total single peptide: A*3 + B*2 + C*1; for A: 95 percentile grouping number score / B: Mouse performance score: total score = 5; for C1: #A timing-sequence response peptide fragment set / C2: #B vaccine specificity peptide fragment set / C3: Intersection of A and B / C4: Percentage of the intersection in set B / C: Timing-sequence response and specificity score: value of the whole mix
Protocol: Data distribution and characteristics thereof are analyzed based on a) and b), a polypeptide chip-based vaccine immunogenicity scoring system (referring to Table 7) is designed.
10 combinations are evaluated by the polypeptide chip-based vaccine immunogenicity scoring system. An evaluation method is consistent with that in Embodiment II. Evaluation results are show in the table below.
This embodiment is consistent with Embodiment II. Each combination is evaluated by the polypeptide chip-based vaccine immunogenicity scoring system. Evaluation results are show in the table below.

| Sequence | B1: D 0-D 14 95 percentile rise in the number of mice | B2: D 0-D 21 95 percentile rise in the number of mice | B3: D 14-D 21 95 percentile rise in the number of mice | B4: D 21-D 28 95 percentile rise in the number of mice | A1: difference between a highest median and a D 0 median (95 percentile) | A2: whether the 95 percentile of the last sampling is increased compared with the end point | Total single peptide | A: 95 percentile grouping number score | B: Mouse performance score | C1: #A timing-sequence response peptide fragment set | C2: #B vaccine specificity peptide fragment set | C3: Intersection of A and B | C4: Percentage of the intersection in set B | C: Timing-sequence response and specificity score |
| --- | --- | --- | --- | --- | --- | --- | --- | --- | --- | --- | --- | --- | --- | --- |
| HGKEDLKF (SARS-CoV-2) [SEQ ID NO:23] | 3 | 3 | 0 | 1 | 0.20 | N | 19.4 | 5 | 1.7 | 1494 | 190 | 2 | 1.053 | 1 |
| IRGGDGKMKD (SARS-CoV-2) [SEQ ID NO:40] | 3 | 3 | 2 | 0 | 0.11 | N | 18.3 | 4.5 | 1.9 | 823 | 398 | 7 | 1.759 | 1 |
| KEIDRLNEV [SEQ ID NO:12] | 3 | 3 | 1 | 0 | 0.10 | N | 15.9 | 4 | 1.7 | 257 | 682 | 3 | 0.440 | 0.5 |
| KKPASRELKVTF [SEQ ID NO:24] | 3 | 3 | 1 | 2 | 0.10 | Y | 18.2 | 4.5 | 2.1 | 145 | 529 | 1 | 0.189 | 0.5 |
| KLDNYYKKDNSY (SARS-CoV-2) [SEQ ID NO:32] | 3 | 3 | 1 | 2 | 0.12 | Y | 20.2 | 5 | 2.1 | 1494 | 190 | 2 | 1.053 | 1 |
| KRISNCVADY [SEQ ID NO:8] | 2 | 3 | 2 | 1 | 0.03 | N | 7.1 | 1 | 1.8 | 230 | 251 | 1 | 0.398 | 0.5 |
| KVFRSSVLHSTQ [SEQ ID NO:6] | 3 | 3 | 0 | 2 | 0.09 | Y | 16.3 | 4 | 1.9 | 1212 | 389 | 1 | 0.257 | 0.5 |
| LPFNDGVYF (SARS-CoV-2) [SEQ ID NO:14] | 3 | 2 | 2 | 3 | 0.09 | Y | 17.1 | 4 | 2.3 | 133 | 431 | 1 | 0.232 | 0.5 |
